# Measurements published in ChEMBL document CHEMBL6096719, “Kidney Targeting Smart Antibiotic Discovery: Multimechanism Pleuromutilins for Pyelonephritis Therapy” (J Med Chem, 2025).
# Calls of active or inactive are those of the source. The calls are words filed in the database; no cut-off is given here.
# Key:
# [1] = test system: Mycoplasmoides pneumoniae; assay: Anti-mycoplasma activity against Mycoplasma pneumoniae M129 ATCC29342 assessed as inhibition of bacterial growth incubated for 3 to 5 days by broth microdilution method; assay type: functional; conditions: time 3-5 day
# Cell membrane [2] = assay: Disruption of cell membrane in methicillin-resistant Staphylococcus aureus ATCC33591 assessed as dissipation of membrane potential at 0.125 to 0.5 ug/ml incubated for 30 mins by DiBAC4(3) probe based fluorescence spectrophotometry; conditions: dose 0.125-0.5 µg/ml
# Staphylococcus aureus [3] = assay: Antibacterial activity against methicillin-resistant Staphylococcus aureus ATCC33591 infected in systemic intraperitoneal infection Kunming mouse model assessed as increase in animal's survival rate at 5 to 20 mg/kg, ip treated at 1 hr post-infection and measured for 7 days; assay type: functional, organism-based; conditions: dose 5-20 mg/kg, time 7.0 day
# [4] = Observed clearance in Sprague-Dawley rat at 5 mg/kg, iv; assay type: ADME, organism-based; conditions: in vivo
# [5] = molecular target: T1, Solute carrier family 22 member 2 (Homo sapiens, UniProt O15244); assay: Inhibition of human OCT2 transfected in HEK293 cells assessed as decrease in intracellular ASP accumulation […] incubated for 10 mins followed by incubation with ASP for 5 mins by fluorescence based analysis; assay type: cell-based; conditions: hek293, 0.25 h, time 15 min
# T1 sequence (O15244 whole entry): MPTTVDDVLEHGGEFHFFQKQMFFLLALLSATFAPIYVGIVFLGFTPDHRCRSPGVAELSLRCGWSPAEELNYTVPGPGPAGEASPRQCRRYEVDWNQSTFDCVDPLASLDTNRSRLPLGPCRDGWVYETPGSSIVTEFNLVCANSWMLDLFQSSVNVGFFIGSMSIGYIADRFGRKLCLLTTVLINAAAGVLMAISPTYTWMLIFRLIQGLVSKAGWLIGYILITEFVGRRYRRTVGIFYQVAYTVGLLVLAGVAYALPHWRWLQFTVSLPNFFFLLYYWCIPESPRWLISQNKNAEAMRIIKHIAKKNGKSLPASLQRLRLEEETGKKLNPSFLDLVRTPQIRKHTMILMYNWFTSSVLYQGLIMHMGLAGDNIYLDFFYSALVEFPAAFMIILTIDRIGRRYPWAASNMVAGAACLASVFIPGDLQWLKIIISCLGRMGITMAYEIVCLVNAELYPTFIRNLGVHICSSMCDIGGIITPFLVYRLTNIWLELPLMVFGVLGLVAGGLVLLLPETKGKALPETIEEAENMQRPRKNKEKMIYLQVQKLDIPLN
# [6] = Half-life in Sprague-Dawley rat at 10 mg/kg, po; assay type: ADME, organism-based; conditions: in vivo
# Cell membrane [7] = assay: Disruption of cell membrane in Escherichia coli ATCC25922 assessed as dissipation of membrane potential at 0.125 to 0.5 ug/ml incubated for 30 mins by DiBAC4(3) probe based fluorescence spectrophotometry; conditions: dose 0.125-0.5 µg/ml
# Staphylococcus aureus [8] = assay: Antibiofilm activity against methicillin-resistant Staphylococcus aureus ATCC33591 assessed as eradication of preformed biofilms incubated for 24 hrs with preformed biofilms by crystal violet staining based analysis; assay type: functional, organism-based; conditions: dose 0.125-0.5 µg/ml
# [9] = test system: Mycoplasmoides gallisepticum; assay: Anti-mycoplasma activity against Mycoplasma gallisepticum NCTC10115 assessed as inhibition of bacterial growth incubated for 3 to 5 days by broth microdilution method; assay type: functional; conditions: time 3-5 day
# [10] = Observed apparent oral clearance in Sprague-Dawley rat at 10 mg/kg, po; assay type: ADME, organism-based; conditions: in vivo
# Escherichia coli [11] = assay: Antibiofilm activity against Escherichia coli ATCC25922 assessed as eradication of preformed biofilms incubated for 24 hrs with preformed biofilms by crystal violet staining based analysis; assay type: functional, organism-based; conditions: dose 0.125-0.5 µg/ml
# [12] = Cytotoxicity against human HepG2 cells assessed as reduction in cell viability incubated for 24 hrs by CCK8 assay; assay type: toxicity, cell-based
# Staphylococcus aureus [13] = assay: Antibacterial activity against methicillin-resistant Staphylococcus aureus ATCC33591 infected in systemic intraperitoneal infection Kunming mouse model assessed as decrease in bacterial colonies in lungs administered intraperitoneally at 1 hr post-infection and measured after 7 days; assay type: functional, organism-based; conditions: dose 5-20 mg/kg, route ip, time 7.0 day
# Staphylococcus aureus [14] = assay: Antibiofilm activity against methicillin-resistant Staphylococcus aureus ATCC33591 assessed as eradication of biofilms at 0.5 ug/ml incubated for 4 hrs by field emission scanning electron microscopy; assay type: functional, organism-based; conditions: dose 0.5 µg/ml
# Pseudomonas aeruginosa = assay: Antibacterial activity against multidrug-resistant Pseudomonas aeruginosa 126 assessed as inhibition of bacterial growth incubated for 24 hrs by broth microdilution method; assay type: functional
# [15] = Tmax in Sprague-Dawley rat at 5 mg/kg, iv; assay type: ADME, organism-based; conditions: in vivo
# Escherichia coli [16] = assay: Antibacterial activity against Escherichia coli ATCC25922 infected in pyelonephritis C57BL/6 mouse model assessed as recovery of white blood cells count in blood at 3 to 10 mg/kg, iv qd for 3 days administered at 2 days post-infection; assay type: functional, organism-based; conditions: dose 3-10 mg/kg, time 3.0 day
# [17] = Cmax in Sprague-Dawley rat at 10 mg/kg, po; assay type: ADME, organism-based; conditions: in vivo
# [18] = Half-life in Sprague-Dawley rat at 5 mg/kg, iv; assay type: ADME, organism-based; conditions: in vivo
# Escherichia coli [19] = assay: Antibacterial activity against Escherichia coli CMCC 44103 assessed as inhibition of bacterial growth incubated for 24 hrs by broth microdilution method; assay type: functional
# Acinetobacter baumannii = assay: Antibacterial activity against carbapenem-resistant Acinetobacter baumannii 882 assessed as inhibition of bacterial growth incubated for 24 hrs by broth microdilution method; assay type: functional
# Escherichia coli [20] = assay: Antibacterial activity against Escherichia coli ATCC25922 infected in pyelonephritis C57BL/6 mouse model assessed as decrease in MPO activity in kidney at 3 to 10 mg/kg, iv qd for 3 days administered at 2 days post-infection; assay type: functional, organism-based; conditions: dose 3-10 mg/kg, time 3.0 day
# [21] = test system: Staphylococcus epidermidis; assay: Antibacterial activity against methicillin-resistant Staphylococcus epidermidis ATCC 51625 assessed as inhibition of bacterial growth incubated for 24 hrs by broth microdilution method; assay type: functional
# Staphylococcus aureus [22] = assay: Antibacterial activity against Staphylococcus aureus ATCC 29213 assessed as inhibition of bacterial growth incubated for 24 hrs by broth microdilution method; assay type: functional
# [23] = Observed MRT (0 to infinity) in Sprague-Dawley rat at 5 mg/kg, iv; assay type: ADME, organism-based; conditions: in vivo
# Staphylococcus aureus [24] = assay: Antibacterial activity against methicillin-resistant Staphylococcus aureus 596 assessed as inhibition of bacterial growth incubated for 24 hrs by broth microdilution method; assay type: functional
# Escherichia coli [25] = assay: Antibacterial activity against Escherichia coli ATCC 25922 assessed as inhibition of bacterial growth incubated for 24 hrs by broth microdilution method; assay type: functional
# Cell membrane [26] = assay: Disruption of cell membrane in Escherichia coli ATCC25922 assessed as decrease in intracellular ATP content at 0.125 to 0.25 ug/ml incubated for 30 mins by luminescence based analysis; conditions: dose 0.125-0.25 µg/ml
# Cell membrane [27] = assay: Disruption of cell membrane in Escherichia coli ATCC25922 assessed as decrease in intracellular pH at 0.125 ug/ml incubated for 30 mins by cFDA-SE probe based fluorescence analysis; conditions: dose 0.125 µg/ml
# Staphylococcus aureus [28] = assay: Antibacterial activity against methicillin-resistant Staphylococcus aureus ATCC 33591 assessed as inhibition of bacterial growth incubated for 24 hrs by broth microdilution method; assay type: functional
# Staphylococcus aureus [29] = assay: Antibiofilm activity against methicillin-resistant Staphylococcus aureus ATCC33591 assessed as disruption of preformed biofilms at 0.5 ug/ml incubated for 24 hrs with preformed biofilms by crystal violet staining based analysis; assay type: functional; conditions: dose 0.5 µg/ml
smiles,measurement,setting,value
C=C[C@]1(C)C[C@@H](OC(=O)CSc2nc3cc[n+](Cc4ccc(C)cc4)cc3[nH]2)[C@]2(C)[C@H](C)CC[C@]3(CCC(=O)[C@H]32)[C@@H](C)[C@@H]1O.[Br-],MIC,[1],< 8 ng/mL
same,Activity,Cell membrane [2],Active
same,Activity,Staphylococcus aureus [3],Active; Superior Efficacy Over Valnemulin Observed
same,clearance,[4],5.04 mL/min/kg
same,inhibition (INH),[5],Not_active
same,half-life,[6],94.2 min
same,Activity,Cell membrane [7],Active
same,Activity,Staphylococcus aureus [8],Dose-dependent-effect
same,MIC,[9],< 0.04 µg/mL
same,CL/F,[10],10.5 mL/min/kg
same,Activity,Escherichia coli [11],Dose-dependent-effect
same,CC50 at 24 h,[12],> 100 µM
same,Activity,Staphylococcus aureus [13],Active; Superior Efficacy Compared To Valnemulin Observed
same,Activity,Staphylococcus aureus [14],Active; Almost Complete Eradication Of Bacteria Observed
same,MIC,Pseudomonas aeruginosa,4 µg/mL
same,Tmax,[15],1.8 min
same,Activity,Escherichia coli [16],Active
same,Cmax,[17],6210 ng/mL
same,half-life,[18],70.2 min
same,MIC,Escherichia coli [19],< 1 µg/mL
same,MIC,Acinetobacter baumannii,4 µg/mL
same,Activity,Escherichia coli [20],Active
same,MIC,[21],< 1 µg/mL
same,MIC,Staphylococcus aureus [22],< 1 µg/mL
same,MRT inf,[23],1.14 h
same,MIC,Staphylococcus aureus [24],2 µg/mL
same,MIC,Escherichia coli [25],< 1 µg/mL
same,Activity,Cell membrane [26],Active
same,Activity,Cell membrane [27],Active
same,MIC,Staphylococcus aureus [28],< 1 µg/mL
same,Activity,Staphylococcus aureus [29],84.31%
